We go through 85 molecules from ChEMBL document CHEMBL1157539, “Thousands of chemical starting points for antimalarial lead identification” (Nature, 2010).

In the experiment the test system is Plasmodium falciparum. Nature of the experiment: GSK_TCMDC: Inhibition of Plasmodium falciparum 3D7 in whole erythrocytes, using parasite LDH activity as an index of growth. As to conditions: Plasmodium falciparum, 3D7. Format: functional, organism-based.
`CCN(CC)CCN(Cc1ccc(-c2ccc(C(F)(F)F)cc2)cc1)C(=O)Cn1c(CCc2cccc(F)c2F)nc(=O)c2ccc(C)cc21` showed an XC50 of 668 nM. For `CC(C)N1CCC(N(Cc2ccc(-c3ccc(Cl)cc3)cc2)C(=O)Cn2c(CCc3cccc(F)c3F)cc(=O)c3ccccc32)CC1` the value was 929 nM. For `CCNc1cc(C(=O)N[C@@H](Cc2ccccc2)[C@H](O)CNCCCc2ccc(OC)cc2)cc(N2CCCC2=O)c1` the value was 556 nM. The value for `Cn1cncc1CCN(Cc1ccc(-c2ccc(C(F)(F)F)cc2)cc1)C(=O)Cn1c(CCc2cccc(F)c2F)cc(=O)c2cccnc21` was 853 nM. For `COc1cccc(-c2cccc(CNC3CCN(CC4Cn5c(=O)ccc6ccc(F)c4c65)CC3)c2)c1` (stereo not given), the XC50 worked out at 934 nM. On to `COc1cc2nc(N3CCC(CNC(=O)c4cc5ccccc5s4)CC3)nc(N)c2cc1OC`, for which the XC50 came out at 293 nM. The value for `CCCCCCc1cnc2nc(N)nc(N)c2c1C` was 194 nM; that for `CC(C)[C@H](NCC(=O)c1ccccc1)C(=O)O` was 783 nM; that for `COc1ccc2nccc([C@@H](O)CN3CCC(NCc4cc5oc(=O)n(C)c5cc4F)CC3)c2c1` was 661 nM. For `O=C(Nc1ccc(Br)cc1)c1cc(Br)ccc1NS(=O)(=O)c1cc(C(F)(F)F)cc(C(F)(F)F)c1`, the XC50 is 885 nM.

In turn, `Cc1cccc2nc(-c3ccc(-c4ccc(CN5CCN(CCO)CC5)cc4)s3)[nH]c12` registered an XC50 of 712 nM. The value for `C=CCN1Cc2c(O)cccc2C(c2ccc(O)c(O)c2)C1` (stereo not given) was 670 nM; that for `CCCCc1cc(NCc2ccncc2)nc(Nc2ccc(OC)cc2)n1` was 1060 nM; that for `CCc1cn2c3c(cc(C(=O)N[C@@H](Cc4ccccc4)[C@H](O)CNCCOC)cc13)N(C)S(=O)(=O)CC2` was 954 nM. The value for `CN(Cc1ccc(NC(=O)CCC2CCN(C(=O)/C=C/c3ccc(Cl)c(Cl)c3)CC2)cc1)C1CCOCC1` was 1730 nM; that for `CCCN(CCCCCCNCCc1ccc(Cl)cc1)CCc1ccc(O)c(O)c1` was 943 nM.

`CC(C)(C)Oc1ccc(NC(=O)c2ccccc2O)cc1` showed an XC50 of 1010 nM. For `C=C(NC(=O)C1CCCCC1)C(=O)OC` the value was 849 nM; for `Fc1ccc2[nH]c(-c3cccc(-c4ccc(CNCCN5CCNCC5)cc4)c3)nc2c1`, 904 nM; for `COC(=O)c1ccc2nc(-c3cc(-c4cccc(-c5ccccc5)c4)cnc3N)[nH]c2c1`, 211 nM.

`Cc1ccc(CNC(=O)c2cc3c(=O)n4ccccc4nc3n(CCCN3CCOCC3)c2=N)cc1` registered an XC50 of 1090 nM.

Molecule `Cc1ccc(C(=O)NC2C(=O)NC2c2ccccc2)c(C)c1` (stereo not given) had an XC50 of 955 nM. The value for `C[C@H](NC(=O)c1c(OC2CN(C(c3ccccc3)c3ccccc3)C2)c(-c2ccccc2)nc2ccccc12)C1CCCCC1` was 978 nM. The value for `FC(F)(F)Oc1cccc(CNc2noc(-c3sccc3Br)n2)c1` was 875 nM; that for `COc1ccc(CN2CCCC(OC(c3ccc(F)cc3)c3ccc(F)cc3)C2)c(O)c1` (stereo not given) was 607 nM; that for `CC(=O)Nc1ccc(OCCN(CC(C)C)c2ccc(C#N)c(C(F)(F)F)c2)c(Cl)c1` was 786 nM. Take `CC(C)(C)c1ccc(C(=O)NC2CCC(CCN3CCc4ccc(S(C)(=O)=O)cc4CC3)CC2)cc1C(F)(F)F` (stereo not given): the XC50 is 1220 nM. `O=C(Nc1cccc(CN2CCCN(Cc3ccc(O)cc3)CC2)c1)c1ccc2ccccc2n1` had an XC50 of 938 nM. The value for `O=C(/C=C/c1ccc(C(F)(F)F)cc1)NCCCCCN1CCC(c2c[nH]c3ccccc23)CC1` was 683 nM; that for `COc1ccc2nccc([C@@H](O)CN3CCC(NC(=O)C(c4ccsc4)N4CCN(c5ccccc5)CC4)CC3)c2c1` (stereo not given in full) was 442 nM; that for `COc1cccc2c1CCN(CCN1CCC(CNC(=O)c3ccc(-c4ccc(C#N)cc4)cc3)CC1)C2` was 758 nM. The value for `CC(=O)Nc1nc(C(=O)Nc2cccc(-c3ccc(-c4nc5cc(F)ccc5[nH]4)cc3)c2)cs1` was 288 nM; that for `CN(C)c1ccc(Br)c(Br)c1` was 975 nM; that for `Cc1noc(-c2ccccc2)c1NC(=O)N1CCN(CCCCCCNC(=O)/C=C/c2ccc(Cl)c(Cl)c2)CC1` was 884 nM. Turning to `O=C(NCc1cccc(F)c1)Nc1cccc(-c2cccc(-c3nc4ccccc4[nH]3)c2)c1`, the XC50 was determined as 389 nM.

Take `COc1ccc(C2=C(Nc3ccc4oc5ccccc5c4c3)c3ccccc3C2=O)cc1`: the XC50 amounted to 830 nM. For `CNC(=O)COc1cc(C)c(C2CCN(CCCCNC(=O)c3ccc(-c4ccc(C(F)(F)F)cc4)cc3)CC2)cc1C` the value was 868 nM; for `O=C(COc1ccc(Cl)c(Cl)c1)NCCCCCN1CCCN(C(=O)Nc2ccc(Cl)c(Cl)c2)CC1`, 1730 nM; for `COc1cc(F)c2nccc([C@@H](O)CN3CCC(NCc4ccc5c(n4)NC(=O)CS5)C(F)C3)c2c1` (stereo not given in full), 1170 nM.

As to `O=C(/C=C/c1ccc(-c2nc3cc(F)c(F)cc3[nH]2)cc1)NCc1ccc(Cl)c(Cl)c1`, the XC50 was 938 nM.

As to `CC1CN=C(Nc2ncc(Cl)cc2Cl)N1` (stereo not given), the XC50 was found to be 237 nM. `FC(F)(F)COc1ccc(CNCCCCCCNCc2ccc(OCC(F)(F)F)c3ccccc23)c2ccccc12` returned an XC50 of 400 nM. The molecule `O=C(Nc1ccc(OC(F)(F)F)cc1)NC1CCN(c2ccnc3ccccc23)C1` (stereo not given) returned an XC50 of 244 nM. The value for `CCNc1cc(C(=O)N[C@@H](Cc2ccccc2)[C@H](O)CNCc2cccc(OC)c2C)cc(N2CCCCS2(=O)=O)c1` was 518 nM. For `Cc1cc(F)ccc1-c1nc(NCCCN2CCCC2=O)nc2c1ccc(=O)n2-c1c(F)cccc1F` the value was 1020 nM; for `O=C(/C=C/c1ccc(Cl)c(Cl)c1)N1CCC(CCN2CCC(c3c[nH]c4ccccc34)CC2)CC1`, 602 nM. For `CC(=O)Nc1cccc(C(=O)Nc2cccc(-c3cccc(-c4nc5ccccc5[nH]4)c3)c2)c1` the value was 594 nM; for `CCCCN(CCCC)CCNC(=O)c1cccc(NC(=O)N2CCc3cc(SC)c(C(F)(F)F)cc32)c1`, 809 nM.

The molecule `CCCc1ccc(NC(=O)c2ccc(CN3CCCN(Cc4cccc(O)c4)CC3)cc2)cc1` had an XC50 of 396 nM. For `Cc1cc(OCC2CCN(c3ccc(C(=O)NC4CC4)cn3)CC2)ccc1F` the value was 868 nM; for `OCCN1CCN(Cc2ccc(-c3ccc(-c4nc5ccccc5[nH]4)cc3)cc2)CC1`, 616 nM; for `O=C(NCCN1CCCC1)c1cccc(-c2ccc(-c3nc4cc(C(F)(F)F)ccc4[nH]3)cc2)c1`, 752 nM.

`Nc1cccc(CNCc2ccc(-c3ccc(-c4nc5cc(C(F)(F)F)ccc5[nH]4)s3)cc2)c1` gave an XC50 of 438 nM. Regarding `CC(C)(C)C(Cn1ccnc1)NCc1c[nH]nc1-c1ccc(-c2ccccc2)cc1` (stereo not given), the XC50 came to 1060 nM. The molecule `Cc1nnc(-c2cccc(Nc3ccnc4cc(-c5nccs5)ccc34)c2)o1` came in with an XC50 of 632 nM. For `O=C(Nc1ccc(F)c(Cl)c1)NC1CCN(c2ccnc3cc(Cl)ccc23)C1` (stereo not given) the value was 215 nM; for `Clc1ccc(OCCC2CCN(CCCCCCCN3CCC(CCOc4ccc(Cl)c(Cl)c4)CC3)CC2)cc1Cl`, 624 nM. `CC(CNCc1cn(Cc2cc(Br)cc(Br)c2)c2ccccc12)CNc1cc(=O)c2ccccc2[nH]1` (stereo not given) yielded an XC50 of 464 nM. The value for `Cc1noc(C)c1-c1cccc(CNCc2cccc(-c3cccc(-c4nc5ccccc5[nH]4)c3)c2)c1` was 377 nM; that for `N=c1n(CCN2CCCCC2)c2ccccc2n1CC(=O)c1cccc([N+](=O)[O-])c1` was 879 nM; that for `CC(C)(C)C(=O)Oc1ccc(CC2NCCc3cc(OC(=O)C(C)(C)C)c(OC(=O)C(C)(C)C)cc32)cc1OC(=O)C(C)(C)C` (stereo not given) was 419 nM. The value for `CC(=O)C1=NN(c2ccc(Cl)cc2)C(c2cccs2)N1c1ccccc1` (stereo not given) was 397 nM; that for `O=C(Nc1ccc2c(c1)CCC2)c1cccc(N2CCN(c3ccncc3)CC2)c1` was 971 nM; that for `NS(=O)(=O)c1cccc(N/C=C2\C(=O)Nc3ccc(S(=O)(=O)Cc4c(Cl)cccc4Cl)cc32)c1` was 720 nM. For `CC(C)N(CC(=O)c1ccc(O)c(C(=O)O)c1)Cc1ccccc1` the value was 187 nM; for `N#Cc1ccc2c(c1)CCN(CCC1CCC(NC(=O)/C=C/c3ccc(F)c4ccccc34)CC1)CC2` (stereo not given), 844 nM. As to `CCOc1cc(C(C)C)ccc1N1CCN(CCCCNC(=O)c2ccc(NC(=O)c3ccc(Cl)cc3)cc2)CC1`, the XC50 came out at 416 nM.

In the case of `COc1cc(C(=O)Nc2nc3ccccc3[nH]2)ccc1OCC(=O)Nc1cccc(C(F)(F)F)c1`, the XC50 was 738 nM.

As to `COc1ccc(CNC2CCN(C)CC2)cc1-c1ccc(S(=O)(=O)NCCc2ccccn2)s1`, the XC50 was determined as 624 nM. Regarding `COc1ccccc1CNc1nc(Nc2ccccc2C)nc2ccccc12`, the XC50 was 806 nM. With `N#Cc1ccc(N(CCNS(=O)(=O)c2cc(Br)c(Cl)s2)Cc2ccccc2C(F)(F)F)cc1C(F)(F)F`, the XC50 came to 857 nM. For `COc1cccc2c(C)cc(NCc3ccc(Cl)cc3)nc12` the value was 860 nM. The value for `O=[N+]([O-])c1cccc(CNC2CCN(Cc3ccc(Cl)c(Cl)c3)CC2)c1` was 456 nM; that for `COc1ccc(C(=O)Cn2nc(-c3ccc(Cl)cc3)ccc2=O)c(OC)c1` was 498 nM.

As to `Cc1cccc(NC(=O)Nc2ccc(I)c(OCCN(C)C)c2)c1C`, the XC50 stood at 725 nM. For the molecule `CNC(=S)NCc1cnc2ccccn12`, the XC50 was found to be 195 nM.

Consider `Cc1nc2nc(N)nc(N)c2c(C)c1Cc1ccc(Cl)cc1`, for which the XC50 was determined as 216 nM.

`O=C(NCc1ccc(Cl)c(Cl)c1)[C@H]1CNCCN1C(=O)c1ccccc1`: the XC50 was found to be 955 nM. For `COc1cccc(-c2ccc3c(-c4cccc(NC(C)=O)c4)cnc(N)c3c2)c1` the value was 106 nM. For `COc1ccccc1C1CN(Cc2coc3ccccc3c2=O)Cc2ccccc2O1` (stereo not given) the value was 1320 nM.

`COc1ccc2nccc([C@@H](O)CN3CCC(NCc4ccc5nsnc5c4)CC3)c2c1` displayed an XC50 of 958 nM.

For `Cc1cccc2nc(-c3ccc(-c4cccc(C(=O)N5CCCCC5C(C)O)c4)s3)[nH]c12` (stereo not given), the XC50 was 636 nM.

As to `COc1cc2c(Nc3cccc(NC(=O)c4ccccc4)c3)ncnc2cc1OCCCN1CCOCC1`, the XC50 stood at 155 nM. With `COc1ccc(NC(=O)Nc2ccc(-c3ccccc3)cc2Cl)cc1N1CCN(C)CC1`, the XC50 stood at 875 nM. For `O=C(N[C@@H](Cc1ccccc1)C(=O)NC1CCCCC1)c1ccc(O)c(-c2cccc(C(F)(F)F)c2)c1` the value was 809 nM.
